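Step 1: Grow cells in 96-well plates. Step 2: Expose to compound for 48 hours at 5 concentrations. Step 3: Interpolate endpoints linearly; if unreached, use highest concentration. GI50 = concentration required for 50% inhibition of growth.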 Calls of active or inactive are those of the source. No stated cut-off is given here; in the data, active = GI50 up to about 1.1 µM and inactive = higher.
Columns and labels:
Test in all cases: inhibition of tumour cell growth, NCI panel, 48 h
[1] = test system: Hs-578T
[2] = test system: HCC 2998
[3] = test system: Malme-3M
[4] = test system: KM12
[5] = test system: A498
[6] = test system: 786-0
[7] = test system: NCI/ADR-RES
[8] = test system: SK-MEL-28
[9] = test system: UO-31
[10] = test system: SK-MEL-5
[11] = test system: OVCAR-4
[12] = test system: U-251
[13] = test system: HOP-62
[14] = test system: MDA-N
[15] = test system: T47D
[16] = test system: MOLT-4
[17] = test system: LOX IMVI
[18] = test system: HL-60
[19] = test system: MCF7

Row | SMILES | GI50 [1] | GI50 [2] | GI50 [3] | GI50 [4] | GI50 [5] | GI50 [6] | GI50 [7] | GI50 [8] | GI50 [9] | GI50 [10] | GI50 [11] | GI50 [12] | GI50 [13] | GI50 [14] | GI50 [15] | GI50 [16] | GI50 [17] | GI50 [18] | GI50 [19]
1 | O=C1/C(=C/c2ccccc2S)N=C(c2ccccc2)N1c1nc2ccc(Sc3ccccc3)cc2[nH]1 | 28.2 µM (inactive) | 22.7 µM (inactive) | 37.8 µM (inactive) | 27.6 µM (inactive) | 26.2 µM (inactive) | 28.1 µM (inactive) | 22 µM (inactive) | 36.5 µM (inactive) | 36.3 µM (inactive) | 18.4 µM (inactive) | 35.2 µM (inactive) | 21.3 µM (inactive) | 41.9 µM (inactive) | 14.7 µM (inactive) | 28.8 µM (inactive) | 35.4 µM (inactive) | 34 µM (inactive) | 19.8 µM (inactive) | 27 µM (inactive)
2 | O=C(Cc1ccc(Cl)cc1)Nc1ccc2oc(-c3ccccc3)nc2c1 | > 100 µM (inactive) | > 100 µM (inactive) | > 100 µM (inactive) | > 100 µM (inactive) | > 100 µM (inactive) | 57 µM (inactive) | 57.8 µM (inactive) | > 100 µM (inactive) | – | > 100 µM (inactive) | 29.5 µM (inactive) | 56.1 µM (inactive) | 35.6 µM (inactive) | > 100 µM (inactive) | > 100 µM (inactive) | > 100 µM (inactive) | > 100 µM (inactive) | > 100 µM (inactive) | > 100 µM (inactive)
3 | COC(=O)C1=C(OC(=O)c2ccccc2)C(C(=O)OC)[C@@]2(O)[C@@H](C(=O)OC)[C@H](C)C[C@@H]1[C@@H]2C(=O)OC (stereo not given in full) | 34.5 µM (inactive) | 25 µM (inactive) | 26.9 µM (inactive) | 28.4 µM (inactive) | 26.4 µM (inactive) | 38.1 µM (inactive) | 19 µM (inactive) | 27.2 µM (inactive) | 29.5 µM (inactive) | 31.9 µM (inactive) | 31.6 µM (inactive) | 35.4 µM (inactive) | 33.1 µM (inactive) | 21.4 µM (inactive) | 28 µM (inactive) | 46.1 µM (inactive) | 32.1 µM (inactive) | 20.1 µM (inactive) | 29 µM (inactive)
4 | CC1CC[C@@]2(OC1)O[C@H]1[C@H](O)[C@H]3[C@@H]4CC[C@H]5C[C@@H](OC6OC(CO)C(OC7OC(CO)C(O)C(OC8OCC(O)C(O)C8O)C7OC7OC(CO)C(O)C(O)C7OC7OC(CO)C(O)C(O)C7O)C(O)C6O)[C@H](O)C[C@]5(C)[C@H]4CC[C@]3(C)[C@H]1[C@@H]2C (stereo not given in full) | 3.67 µM (inactive) | > 10 µM (inactive) | > 10 µM (inactive) | 4.29 µM (inactive) | > 10 µM (inactive) | 3.12 µM (inactive) | > 10 µM (inactive) | > 10 µM (inactive) | 4.18 µM (inactive) | > 10 µM (inactive) | 7.08 µM (inactive) | 5.01 µM (inactive) | > 10 µM (inactive) | > 10 µM (inactive) | > 10 µM (inactive) | 0.144 µM (active) | > 10 µM (inactive) | 1.54 µM (inactive) | 2.82 µM (inactive)
5 | Oc1nc(-c2cccc(F)c2)nc2ccccc12 | 15.7 µM (inactive) | 35.1 µM (inactive) | 45.8 µM (inactive) | > 79.6 µM (inactive) | 30.3 µM (inactive) | 38.6 µM (inactive) | 45.5 µM (inactive) | > 76.7 µM (inactive) | 30.8 µM (inactive) | > 67.1 µM (inactive) | 25 µM (inactive) | 36.5 µM (inactive) | 22.5 µM (inactive) | > 62.8 µM (inactive) | > 100 µM (inactive) | > 100 µM (inactive) | > 100 µM (inactive) | > 100 µM (inactive) | 87.1 µM (inactive)
6 | CC(C)(C)OC(=O)CN1CCNCCN(CC(=O)OC(C)(C)C)CC1 | > 100 µM (inactive) | 40.7 µM (inactive) | 0.731 µM (active) | > 100 µM (inactive) | > 100 µM (inactive) | > 100 µM (inactive) | > 100 µM (inactive) | – | > 100 µM (inactive) | > 100 µM (inactive) | > 100 µM (inactive) | – | > 100 µM (inactive) | > 100 µM (inactive) | > 100 µM (inactive) | > 100 µM (inactive) | > 100 µM (inactive) | 19.2 µM (inactive) | > 100 µM (inactive)
7 | COC(=O)/C=C\C(C#N)(C#N)/N=C/c1ccc(C)cc1 | 20.5 µM (inactive) | 18.2 µM (inactive) | 2.28 µM (inactive) | 18 µM (inactive) | 17.7 µM (inactive) | 1.6 µM (inactive) | 3.1 µM (inactive) | 5.5 µM (inactive) | 2.49 µM (inactive) | 12.6 µM (inactive) | 3.89 µM (inactive) | 13 µM (inactive) | 19.3 µM (inactive) | 4.06 µM (inactive) | 1.79 µM (inactive) | 0.778 µM (active) | 2.33 µM (inactive) | 2.52 µM (inactive) | 1.67 µM (inactive)

From ChEMBL document CHEMBL1201862, “PubChem BioAssay data set” (2004)
